From patent publication US20240174634A1, “Aldehyde Dehydrogenase Inhibitors and Their Therapeutic Use” (priority 2020, published 2024)

Each compound was assayed against T1, ALDH1A3 (Homo sapiens, UniProt P47895) (assay: ALDH1A3 cellular assay (ALDEFLUOR) in WM266.4 melanoma cells). Details: WM266.4 cells; 60 min incubation; percentage of ALDH-positive cells.
T1 sequence (P47895 1-512): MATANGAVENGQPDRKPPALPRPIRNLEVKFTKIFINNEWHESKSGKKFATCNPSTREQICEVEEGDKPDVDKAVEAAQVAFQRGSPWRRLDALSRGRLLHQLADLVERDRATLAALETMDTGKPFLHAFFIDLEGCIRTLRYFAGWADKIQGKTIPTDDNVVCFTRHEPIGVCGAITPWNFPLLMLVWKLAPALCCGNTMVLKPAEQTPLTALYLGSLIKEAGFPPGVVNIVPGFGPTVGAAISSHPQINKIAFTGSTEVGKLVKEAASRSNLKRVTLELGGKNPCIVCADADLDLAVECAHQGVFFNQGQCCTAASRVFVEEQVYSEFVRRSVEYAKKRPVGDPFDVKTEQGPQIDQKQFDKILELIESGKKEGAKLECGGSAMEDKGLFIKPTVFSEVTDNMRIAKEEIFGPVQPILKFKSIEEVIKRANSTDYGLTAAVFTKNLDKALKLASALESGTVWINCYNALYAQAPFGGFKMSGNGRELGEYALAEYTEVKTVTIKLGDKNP
Type: cell-based
In short: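 WM266.4 melanoma cells, 7500 per well, incubated overnight, then 60 min at 37 °C with compound (10 μM to 0.0005 μM, 10 points) plus BAAA substrate (500 nM final), verapamil (50 μM) and Hoechst. Imaged BODIPY fluorescence per cell; EC50 from percentage of ALDH-positive cells.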

Row | Compound | IC50 [µM]
1 | O=C1CCc2cc(OCCN3CCCC3c3cccnc3)ccc2N1 (stereo not shown) [ALDHI-2005, 6-[2-[2-(3-pyridyl)pyrrolidin-1-yl]ethoxy]-3,4-dihydro-1H-quinolin-2-one] | 0.1 to 1
2 | O=C1CCc2cc(OCCN3CC(F)(F)CC3c3cccc(F)c3)ccc2N1 (stereo not shown) [ALDHI-2053, 6-[2-[4,4-difluoro-2-(3-fluorophenyl)pyrrolidin-1-yl]ethoxy]-3,4-dihydro-1H-quinolin-2-one] | < 0.1
3 | O=C1CCc2cc(OCCN3CC(O)CC3c3cccc(F)c3)ccc2N1 (mixture of isomers) [ALDHI-2035, 6-[2-[2-(3-fluorophenyl)-4-hydroxy-pyrrolidin-1-yl]ethoxy]-3,4-dihydro-1H-quinolin-2-one] | < 0.1
4 | O=C1CSc2cc(OCCN3CCCC3c3cccc(F)c3)ccc2N1 (stereo not shown) [ALDHI-2008, 7-[2-[2-(3-fluorophenyl)pyrrolidin-1-yl]ethoxy]-4H-1,4-benzothiazin-3-one] | < 0.1
